Data as given in patent US20220330549A1, “USE OF N-BENZYLBENZAMIDE-BASED COMPOUND AS HERBICIDE” (Northwest A&F University, priority 2020, published 2022).

Tests used:
Format in all cases: in vivo
Barnyard grass [1] = assay: Herbicidal activity test for indoor pre-emergence soil treatment; design: key: level 1-9; higher = more weed remaining vs blank control; settings: 150 g a.i./ha, visual inspection 21 days after treatment
Procedure, shortened: (§1)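 Pre-emergence soil spray per NY/T 1155.3-2006: weed seeds sown in moistened neutral sandy loam (organic content ≤2%), covered with 0.5–2.0 cm soil, then sprayed 24 h later with a water-diluted 10% emulsifiable concentrate at 150 g(a.i.)/ha. Visual rating after 21 days on a 1–9 scale.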

Piemarker [2] = assay: as above; design: key: level 1-9; higher = more weed remaining vs blank control; settings: 150 g a.i./ha, visual inspection 21 days after treatment
Procedure, shortened: as §1

green bristlegrass [3] = assay: as above; design: key: level 1-9; higher = more weed remaining vs blank control; settings: 150 g a.i./ha, visual inspection 21 days after treatment
Procedure, shortened: as §1

Amaranthus retroflexus [4] = assay: as above; design: key: 1-9 levels; higher = more weed remaining vs blank control; settings: 150 g a.i./ha, visual inspection 21 days after treatment
Procedure, shortened: as §1

Digitaria sanguinalis [5] = assay: as above; design: key: 1-9 levels; higher = more weed remaining vs blank control; settings: 150 g a.i./ha, visual inspection 21 days after treatment
Procedure, shortened: as §1

Humulus scandens [6] = assay: as above; settings: 150 g a.i./ha, visual inspection 21 days after treatment
Procedure, shortened: as §1

Amaranthus retroflexus [7] = assay: Herbicidal activity test for indoor post-emergence spraying on stems and leaves; design: key: grade level by weed remaining vs blank control, e.g. 5 = 10.1-15%; settings: 150 g a.i./ha, visual inspection 21 days after treatment
Procedure, shortened: (§2)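 Following national standard NY/T 1155.4-2006, seedlings raised in a greenhouse receive stem-and-leaf spraying after emergence; 21 days on, surviving weed is compared by eye with the blank control area and assigned a graded level (e.g., level 6 = 15.1–25%).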

Barnyard grass [8] = assay: as above; design: key: grade level by weed remaining vs blank control, e.g. 5 = 10.1-15%; settings: 150 g a.i./ha, visual inspection 21 days after treatment
Procedure, shortened: as §2

Digitaria sanguinalis [9] = assay: as above; design: key: grade level by weed remaining vs blank control, e.g. 5 = 10.1-15%; settings: 150 g a.i./ha, visual inspection 21 days after treatment
Procedure, shortened: as §2

Humulus scandens [10] = assay: as above; design: key: grade level by weed remaining vs blank control, e.g. 5 = 10.1-15%; settings: 150 g a.i./ha, visual inspection 21 days after treatment
Procedure, shortened: as §2

Piemarker [11] = assay: as above; design: key: grade level by weed remaining vs blank control, e.g. 5 = 10.1-15%; settings: 150 g a.i./ha, visual inspection 21 days after treatment
Procedure, shortened: as §2

green bristlegrass [12] = assay: as above; design: key: grade level by weed remaining vs blank control, e.g. 5 = 10.1-15%; settings: 150 g a.i./ha, visual inspection 21 days after treatment
Procedure, shortened: as §2

Broadleaf weed = assay: Post-emergence herbicidal activity test in a paddy field; design: key: level scale; higher level = more weed left vs blank control; settings: 150 g a.i./ha (penoxsulam control 250 g(a.i.)/h)
Procedure, shortened: (§3)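 Efficacy was visually estimated 15 and 30 days after spraying, grading weed coverage relative to an untreated neighbouring plot (level 2 = 0 to 2.5%, level 9 = 67.6 to 100%). Treatments were 150 g(a.i.)/ha from 10% emulsifiable concentrates applied at the 4-5 leaf rice stage, four repeats of 50 m^2 each.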

Cyperaceae = assay: as above; design: key: level scale; higher level = more weed left vs blank control; settings: 150 g a.i./ha (penoxsulam control 250 g(a.i.)/h)
Procedure, shortened: as §3

Gramineae = assay: as above; design: key: level scale; higher level = more weed left vs blank control; settings: 150 g a.i./ha (penoxsulam control 250 g(a.i.)/h)
Procedure, shortened: as §3

Acalypha australis = assay: Field test for weed control in a corn field; settings: for Post-emergence weed control effect, Acalypha australis: 150 g a.i./ha, after treatment
Procedure, shortened: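 Herbicidal activity against weeds was assessed in corn plots by the GB/T 17980.42-2000 method. Corn at the 2–5 leaf stage received water sprays of 10% emulsifiable concentrates at 150 g(a.i.)/ha, four repeats per treatment over 20 m^2. A 25% mesotrione oil dispersion was the reference. Damage symptoms and severity were rated on levels 1-9 relative to weeds in the blank control area.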

Amaranthus retroflexus [13] = assay: Field test for weed control in a corn field; settings: for Post-emergence weed control effect, Amaranthus retroflexus: 150 g a.i./ha, 30 days after treatment
Procedure, shortened: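 Post-emergence control of Amaranthus retroflexus was assessed in corn plots using the GB/T 17980.42-2000 method. Emulsifiable concentrates (10%) in water were applied by spraying at the 2- to 5-leaf crop stage on 20 m^2 plots, four replicates each, alongside a mesotrione 25% oil dispersion reference. Herbicidal activity was scored on 1-9 levels by weed amount relative to blank control areas.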

Barnyard grass [14] = assay: Field test for weed control in a corn field; settings: for Post-emergence weed control effect, Barnyard grass: 150 g a.i./ha, 30 days after treatment
Procedure, shortened: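 Herbicidal activity against barnyard grass was assessed in corn field plots of 20 m^2, with four replicates per treatment. Compounds were applied as water-diluted 10% emulsifiable concentrates at 150 g(a.i.)/ha at the 2-5 leaf corn stage, with 25% mesotrione oil dispersion as the reference agent. Damage was scored on a 1-9 scale against untreated blank plots.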

Chenopodium album = assay: Field test for weed control in a corn field; settings: for Post-emergence weed control effect, Chenopodium album: 150 g a.i./ha, after treatment
Procedure, shortened: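 Field weed-control testing in corn, run per GB/T 17980.42-2000, scored Chenopodium album on a 1-9 level scale, where each level matches a percentage range of weed remaining relative to the blank control area. Sprays of 10% emulsifiable concentrates in water delivered 150 g(a.i.)/ha at the corn 2-leaf to 5-leaf stage on 20 m^2 plots, four replicates each. Mesotrione 25% oil dispersion served as reference.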

Convolvulus arvensis = assay: Field test for weed control in a corn field; settings: for Post-emergence weed control effect, Convolvulus arvensis: 150 g a.i./ha, after treatment
Procedure, shortened: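 Post-emergence herbicidal activity on Convolvulus arvensis was scored in a corn field on a 1-9 scale, based on symptoms and damage severity. Each level corresponds to the weed remaining as a percentage of the blank control area. Sprays of 10% emulsifiable concentrate at 150 g(a.i.)/ha went on at the corn 2–5 leaf stage, with four replicates of 20 m^2 per treatment.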

Digitaria sanguinalis [15] = assay: Field test for weed control in a corn field; settings: for Post-emergence weed control effect, Digitaria sanguinalis: 150 g a.i./ha, after treatment
Procedure, shortened: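 Field trial in a corn field following GB/T 17980.42-2000. Test compounds were formulated as 10% emulsifiable concentrates, diluted in water and sprayed post-emergence at 150 g(a.i.)/ha when corn had 2 to 5 leaves, with 4 replicates on 20 m^2 plots. Control of Digitaria sanguinalis was scored on a 1-9 scale based on weed damage relative to the untreated blank area.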

Portulaca oleracea = assay: Field test for weed control in a corn field; settings: for Post-emergence weed control effect, Portulaca oleracea: 150 g a.i./ha, after treatment
Procedure, shortened: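 Post-emergence weed control was evaluated in a corn field by the GB/T 17980.42-2000 method. Emulsifiable concentrates (10%) in water were applied as sprays at 150 g(a.i.)/ha at the 2-5 leaf corn stage, in four replicate 20 m^2 plots. A 25% mesotrione oil dispersion served as control agent. Effects were graded 1-9 relative to weed remaining in blank control areas.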

Solanum nigrum = assay: Field test for weed control in a corn field; settings: for Post-emergence weed control effect, Solanum nigrum: 150 g a.i./ha, 30 days after treatment
Procedure, shortened: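 In a corn field trial based on GB/T 17980.42-2000, 10% emulsifiable concentrates diluted in water were sprayed at 150 g(a.i.)/ha at the 2 to 5 leaf stage of corn. Each treatment used 20 m^2 plots and was repeated 4 times, with 25% mesotrione oil dispersion as the reference agent. Solanum nigrum damage was scored on a 1-9 scale against blank control plots.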

goosegrass = assay: Field test for weed control in a corn field; settings: for Post-emergence weed control effect, Goose grass: 150 g a.i./ha, after treatment
Procedure, shortened: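 In this field trial in corn, run per GB/T 17980.42-2000, test agents prepared as 10% emulsifiable concentrates were applied in water as sprays at 150 g(a.i.)/ha at the 2- to 5-leaf corn stage. Each treatment covered 20 m^2 and was repeated 4 times. Goosegrass control was scored 1-9 relative to weed remaining in blank control areas.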

green bristlegrass [16] = assay: Field test for weed control in a corn field; settings: for Post-emergence weed control effect, Green bristlegrass: 150 g a.i./ha, after treatment
Procedure, shortened: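 Herbicidal activity against green bristlegrass was assessed in corn field plots of 20 m^2 per GB/T 17980.42-2000. Test agents, formulated as 10% emulsifiable concentrates, were applied in water at 150 g(a.i.)/ha at the corn 2 leaves to 5 leaves stage, repeated 4 times. A 25% mesotrione oil dispersion served as the control agent, and weed damage was rated on levels 1-9.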

nutgrass flatsedge = assay: Field test for weed control in a corn field; settings: for Post-emergence weed control effect, Nutgrass flatsedge: 150 g a.i./ha, after treatment
Procedure, shortened: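 Herbicidal effect on nutgrass flatsedge was measured in a field planted with corn, using the GB/T 17980.42-2000 method. Emulsifiable concentrates (10%) in water were sprayed at 150 g(a.i.)/ha during the 2-leaf to 5-leaf corn stage, on 20 m^2 plots repeated 4 times. 25% mesotrione oil dispersion was the control agent. Activity was scored from 1 to 9 by weed remaining relative to blank control plots.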

[17] = 150 g(a.i.)/ha, 21 days after treatments

SMILES | Herbicidal Activity Barnyard grass (Barnyard grass [1]) | Herbicidal Activity Piemarker (Piemarker [2]) | Herbicidal Activity Green bristlegrass (green bristlegrass [3]) | Herbicidal Activity Amaranthus retroflexus (Amaranthus retroflexus [4]) | Herbicidal Activity Digitaria sanguinalis (Digitaria sanguinalis [5]) | Herbicidal Activity Humulus scandens (Humulus scandens [6]) | Herbicidal Activity Amaranthus retroflexus (Amaranthus retroflexus [7]) | Herbicidal Activity Barnyard grass (Barnyard grass [8]) | Herbicidal Activity Digitaria sanguinalis (Digitaria sanguinalis [9]) | Herbicidal Activity Humulus scandens (Humulus scandens [10]) | Herbicidal Activity Piemarker (Piemarker [11]) | Herbicidal Activity Green bristlegrass (green bristlegrass [12]) | Herbicidal activity 15 days after treatment Broadleaf weed (Broadleaf weed) | Herbicidal activity 30 days after treatment Broadleaf weed (Broadleaf weed) | Herbicidal activity 15 days after treatment Cyperaceae (Cyperaceae) | Herbicidal activity 30 days after treatment Cyperaceae (Cyperaceae) | Herbicidal activity 15 days after treatment Gramineae (Gramineae) | Herbicidal activity 30 days after treatment Gramineae (Gramineae) | Post-emergence weed control effect, Acalypha australis (Acalypha australis) | Post-emergence weed control effect, Amaranthus retroflexus (Amaranthus retroflexus [13]) | also measured
COc1ccccc1C(=O)NCc1cccc(F)c1 [Compound A01, N-(3-fluorobenzylamine)-2-methoxybenzamide] | 1 | 3 (equivalent to 2.6 to 5% of the weed in the blank control area) | 1 | 3 (equivalent to 2.6 to 5% of the weed in the blank control area) | 1 | 4 (equivalent to 5.1 to 10% of the weed in the blank control area) | 1 | 1 | 1 | 1 | 1 | 1 | 1 | 2 (equivalent to 0 to 2.5% of the weed in the blank control area) | 1 | 2 (equivalent to 0 to 2.5% of the weed in the blank control area) | 2 (equivalent to 0 to 2.5% of the weed in the blank control area) | 2 (equivalent to 0 to 2.5% of the weed in the blank control area) | 2 (equivalent to 0 to 2.5% of the weed in the blank control area) | 1 | Post-emergence weed control effect, Barnyard grass (Barnyard grass [14]): 2 (equivalent to 0 to 2.5% of the weed in the blank control area); Post-emergence weed control effect, Chenopodium album (Chenopodium album): 1; Post-emergence weed control effect, Convolvulus arvensis (Convolvulus arvensis): 1; Post-emergence weed control effect, Digitaria sanguinalis (Digitaria sanguinalis [15]): 2 (equivalent to 0 to 2.5% of the weed in the blank control area); Post-emergence weed control effect, Portulaca oleracea (Portulaca oleracea): 1; Post-emergence weed control effect, Solanum nigrum (Solanum nigrum): 2 (equivalent to 0 to 2.5% of the weed in the blank control area); Post-emergence weed control effect, Goose grass (goosegrass): 2 (equivalent to 0 to 2.5% of the weed in the blank control area); Post-emergence weed control effect, Green bristlegrass (green bristlegrass [16]): 1; Post-emergence weed control effect, Nutgrass flatsedge (nutgrass flatsedge): 2 (equivalent to 0 to 2.5% of the weed in the blank control area)
Cc1cccc(C(=O)NCc2ccc(F)c(Cl)c2)n1 [Compound B30] | 1 | 1 | 1 | 1 | 1 | 2 (equivalent to 0 to 2.5% of the weed in the blank control area) | 1 | 1 | 1 | 1 | 1 | 1 | 1 | 1 | 1 | 2 (equivalent to 0 to 2.5% of the weed in the blank control area) | 1 | 1 | 1 | 1 | controlling effect on Acalypha australis (Acalypha australis; [17]): 1; controlling effect on Amaranthus retroflexus (Amaranthus retroflexus [13]; [17]): 1; Post-emergence weed control effect, Barnyard grass (Barnyard grass [14]): 1; controlling effect on barnyard grass (Barnyard grass [14]; [17]): 1; Post-emergence weed control effect, Chenopodium album (Chenopodium album): 1; controlling effect on Chenopodium album (Chenopodium album; [17]): 1; Post-emergence weed control effect, Convolvulus arvensis (Convolvulus arvensis): 1; controlling effect on Convolvulus arvensis (Convolvulus arvensis; [17]): 1; Post-emergence weed control effect, Digitaria sanguinalis (Digitaria sanguinalis [15]): 1; controlling effect on Digitaria sanguinalis (Digitaria sanguinalis [15]; [17]): 1; Post-emergence weed control effect, Portulaca oleracea (Portulaca oleracea): 1; controlling effect on Portulaca oleracea (Portulaca oleracea; [17]): 1; Post-emergence weed control effect, Solanum nigrum (Solanum nigrum): 1; controlling effect on Solanum nigrum (Solanum nigrum; [17]): 1; Post-emergence weed control effect, Goose grass (goosegrass): 1; controlling effect on goosegrass (goosegrass; [17]): 1; Post-emergence weed control effect, Green bristlegrass (green bristlegrass [16]): 1; controlling effect on green bristlegrass (green bristlegrass [16]; [17]): 1; Post-emergence weed control effect, Nutgrass flatsedge (nutgrass flatsedge): 1; controlling effect on nutgrass flatsedge (nutgrass flatsedge; [17]): 1
